Assay results published in patent US20080021070A1, “PYRIDINE DERIVATIVES, PREPARATION AND THERAPEUTIC APPLICATION THEREOF” (SANOFI-AVENTIS, priority 2004, published 2008).

Row | melting point [°C] | Structure (SMILES)
1 | 98 | Cc1nc(-c2ccc(Cl)cc2)c(-c2ccc(Cl)cc2Cl)cc1CNS(=O)(=O)c1ccc(C(F)(F)F)cc1
2 | 135.5 | Cc1nc(-c2ccc(Cl)cc2)c(-c2ccc(Cl)cc2Cl)cc1CNC(=O)c1cc2ccccc2[nH]1 [Compound 3, N-{[-6-(4-chlorophenyl)-5-(2,4-dichlorophenyl)-2-methylpyridin-3-yl]methyl}-1H-indole-2-carboxamide]
